Source: PubChem BioAssay (NCI)
Several values for one entry are separate records, joined by “and”; a condition that tells them apart may be missing. Identical values can stand only once.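 Values below derive from 48-hour exposures of cells grown in 96-well plates, with endpoints linearly interpolated between the two concentrations bracketing the appropriate inhibition level. Abbreviation: GI50, concentration required for 50% inhibition of growth. TGI denotes the concentration required for complete inhibition of growth.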

Experiments:
Experiment in all cases: NCI tumour cell line growth inhibition, 48 h
[1] = tested on: SNB-78 CNS
[2] = tested on: KM20L2 colon
[3] = tested on: M19-MEL melanoma
[4] = tested on: LXFL 529 NSCLC
[5] = tested on: HOP-18 NSCLC
[6] = tested on: DMS 114 small cell lung
[7] = tested on: XF 498 CNS
[8] = tested on: RXF-631 renal
[9] = tested on: MDA-N
[10] = tested on: P388 leukemia
[11] = tested on: P388/ADR leukemia
[12] = tested on: SN12K1 renal

SMILES | TGI [1] [µM] | TGI [2] [µM] | TGI [3] [µM] | TGI [4] [µM] | TGI [5] [µM] | TGI [6] [µM] | TGI [7] [µM] | TGI [8] [µM] | further results
COc1cc(/C=C(\C#N)C(=O)c2ccccc2)cc(OC)c1OC | > 100 | > 100 | > 100 | > 100 | > 100 | > 100 | – | – | –
O=C(NC(=Nc1ccccc1)SCCSC(=Nc1ccccc1)NC(=O)c1ccccc1)c1ccccc1 | > 100 | > 100 | > 100 | > 100 | – | > 100 | > 100 | – | –
Cc1nc2ccccc2c(=O)n1/N=C(\N=Nc1ccc(Cl)cc1)c1ccc(N(C)C)cc1 | – | > 100 | > 100 | > 100 | > 100 | > 100 | 96.3 | – | –
O=C1N(c2ccccc2)C2(O)C(=O)c3ccccc3C2(O)N1c1ccccc1 (configuration not stated) | > 100 | > 100 | > 100 | > 100 | > 100 | > 100 | – | – | –
N#CC1(C2CC(=O)N(c3ccccc3)C2=O)CCCCC1=O (configuration not stated) | > 100 | – | > 100 | > 100 | > 100 | > 100 | > 100 | > 100 | –
CC(=O)NNc1nc(C)c(C(=O)NNC(=O)C(=O)Nc2ccc(C)cc2[N+](=O)[O-])s1 | > 100 | > 100 | > 100 | > 100 | > 100 | > 100 | – | > 100 | –
Cc1cc2c(=O)cc(-c3ccncc3)oc2c(C(N)=O)c1C | > 100 | > 100 | > 100 | > 100 | > 100 | – | > 100 | – | –
Cc1cc(Br)ccc1N=NC1C(=O)ON=C1c1ccccc1 (configuration not stated) | > 100 | > 100 | > 100 | > 100 | > 100 | > 100 | – | > 100 | –
CC(=O)Nc1ccc(/C=C/C(=O)c2sc(-n3nc(-c4ccccc4)cc3-c3ccccc3)nc2C)cc1 | – | > 100 | > 100 | > 100 | – | > 100 | – | > 100 | GI50 [2]: > 100 µM; GI50 [8]: > 100 µM; GI50 [3]: > 100 µM; GI50 [4]: > 100 µM
COc1cc(Br)c(C2OCCCO2)cc1OCc1ccccc1 | > 100 | > 100 | > 100 | > 100 | – | > 100 | – | > 100 | –
CC1CC(=O)C(CC(=O)O)[C@H]1C(C(=O)C(=O)Nc1cc(Cl)ccc1Cl)[N+](=O)[O-] (some centres not stated) | – | > 100 | > 100 | – | > 100 | > 100 | > 100 | – | –
CC(=O)O[C@@H]1[C@H]2O[C@H]2[C@H]2O[C@@]2(COC(=O)c2ccccc2)[C@H]1OC(C)=O | – | – | – | – | – | – | – | – | TGI [9]: > 100 µM
CCC[CH2][Sn]1([CH2]CCC)[O]C(=O)c2cccnc2[S]1 | 5.76 | 21 | 15.4 | 2.98 | – | 3.83 | 3.5 | – | GI50 [1]: 1.88 µM; GI50 [2]: 7.72 µM; GI50 [3]: 3.87 µM; GI50 [4]: 1.33 µM; GI50 [7]: 2 µM; GI50 [6]: 1.64 µM
COc1ccc(Cc2c3cc(OC)c(OC)cc3cc[n+]2C)cc1 | > 100 | 24.3 | > 55.3 | > 24.6 | > 45.8 | > 28.8 | > 23.4 | > 24 | –
COc1cc(CC2c3cc(OC)c(OC)cc3CCN2C)c(C(=O)O)cc1OC (configuration not stated) | > 100 | > 100 | > 100 | > 100 | > 100 | > 100 | > 100 | – | –
CS(=O)c1cc(=O)c2ccccc2s1 (configuration not stated) | 27.6 | 13.4 | 11.9 | 2.9 | 19.7 | 9.87 | 7.57 | – | TGI [10]: 6.79 µM; TGI [11]: > 22.2 µM; TGI [9]: 7.13 µM; TGI [12]: 32.8 µM
C/C=C/C(C/C=C(\C)CO[Si](C)(C)C(C)(C)C)O[Si](C)(C)C(C)(C)C (configuration not stated) | – | – | – | – | – | – | – | – | TGI [9]: > 100 µM
CCCCP1(=O)C=CC(Cl)=C(C)C1 (configuration not stated) | > 100 | > 100 | > 100 | > 100 | > 100 | – | – | – | –

SMILES | TGI [1] [µM] | TGI [2] [µM] | TGI [3] [µM] | TGI [4] [µM] | TGI [5] [µM] | TGI [6] [µM] | TGI [7] [µM] | TGI [8] [µM] | further results
CC1(C)OC2OC(/C=C/[N+](=O)[O-])C3OC(C)(C)OC3C2O1 (configuration not stated) | 44 | 39.6 | 27.7 | 10.1 | 40.8 | 34.5 | – | – | –
C=CC(C)(C)[C@@]12CC3C(=O)N[C@@H](Cc4ccccc4)C(=O)N3[C@@H]1N(C(C)=O)c1ccccc12 (some centres not stated) | > 100 | > 100 | > 100 | > 100 | > 100 | > 100 | > 100 | > 100 | –
c1c[nH]c(CN2CCN(Cc3ncc[nH]3)CC2)n1 | – | – | – | – | – | – | – | – | TGI [9]: > 100 µM
COC(=O)N1C=Cc2c(c(C)c3c([nH]c4ccccc43)c2C)C1C (configuration not stated) | – | 29.3 | 37.6 | 43.7 | – | 40 | 34.2 | 37.5 | –
Cc1c(Cl)ccc2[s+]snc12 | > 100 | > 100 | > 100 | 92 | 95.2 | – | 55.2 | > 100 | –
C/C(=N\NC(N)=S)c1ccc(Oc2ccccc2)cc1 | 47.7 | 26.5 | 47.2 | 17.5 | 80 | 17.9 | – | 43.7 | –
CC(C)CC(=O)O[C@H]1C(=O)O[C@@H]2C[C@H]3[C@H](C)C(=O)C(O[C@@H]4O[C@H](CO)[C@@H](O)[C@H](O)[C@H]4O)=C[C@]3(C)[C@H]3[C@@H](O)[C@H](O)[C@]4(C(=O)O)OC[C@]32[C@@H]14 | – | – | – | – | – | – | – | – | TGI [9]: > 100 µM
O=C1C(=C2C(=O)c3ccccc3[N+]2=O)N([O-])c2ccccc21 | > 100 | – | 68.4 | 43.5 | 71.5 | 33.9 | – | – | –
O=c1ccn([C@@H]2C[C@H](CO)CS(=O)C2)c(=O)[nH]1 (some centres not stated) | – | > 100 | > 100 | > 100 | > 100 | > 100 | – | – | –
CCn1c(O)c(C(=O)Nc2cccs2)c(=O)n(CC)c1=S | 50.4 | 32.9 | 39 | 55.7 | – | 31.7 | – | 41.8 | –
CCCCCCCCCCCCCCCCCCCCCCC(=O)N[C@H]1CCc2cc(OC)c(OC)c(OC)c2-c2ccc(SC)c(=O)cc21 | > 100 | 37.1 | > 100 | > 100 | – | – | 61.3 | 51.4 | –
O=C(/C=C/c1c[nH]c2ccccc12)c1ccccc1O | – | – | – | – | – | – | – | – | TGI [9]: 17.5 µM
O=C(/C=C/c1ccccc1)c1ccccn1 | – | – | – | – | – | – | – | – | TGI [9]: 30.5 µM and 67.4 µM
O=C(N=Nc1c(O)[nH]c2c(Cl)cc(Cl)cc12)C(=O)Nc1cccc(C(F)(F)F)c1 | – | – | – | – | – | – | – | – | TGI [9]: > 100 µM
C[C@H](O)CCC(=O)c1ccoc1 | > 100 | > 100 | > 100 | > 100 | > 100 | > 100 | – | – | –
O=C(CC1(O)C(=O)Nc2ccc(Br)cc21)c1cccc([N+](=O)[O-])c1 (configuration not stated) | > 100 | > 100 | – | > 100 | > 100 | – | – | > 100 | –
O=C(c1ccccc1)N1CCc2c([nH]c3ccccc23)C1 | – | > 100 | > 100 | > 100 | > 100 | 65.1 | 55 | > 100 | –
CCc1cccc(CC)c1NC1=CC(=O)C(=O)c2ccccc21 | 80.6 | 48.9 | 17.2 | 48.8 | 62.9 | 27.6 | – | > 100 | –
